Data: patent EP3301096A1, “BIS-INDOLE DERIVATIVES FOR USE IN THE TREATMENT OF BACTERIAL INFECTIONS” (Heinrich Heine Universität Düsseldorf, priority 2016, dated 2018)

Legend:
[1] = test system: human fetal lung fibroblast cell line MRC-5; assay: Cytotoxicity, resazurin assay; type: cell-based; settings: MRC-5 cells, 48 h
Procedure: (§1) The cytotoxicity of the compounds according to formulas (2), (3) and (4) and according to formulas (7), (11), (12) and (18) was determined in vitro using the human monocyte cell line THP-1 (Deutsche Sammlung von Mikroorganismen und Zellkulturen GmbH) and the human fetal lung fibroblast cell line MRC-5 (American Type Culture Collection).
(§2) THP-1 cells were cultured in RPMI 1640 medium containing 10% (v/v) fetal bovine serum (FBS), while MRC-5 cells were incubated in Dulbecco's Modified Eagles Medium (DMEM) containing 10% (v/v) FBS both at 37°C in a humidified atmosphere of 5% CO2. […] Cells treated with DMSO in a final concentration of 1% (v/v) served as DMSO toxicity controls. After an incubation time of 48 h, 10 µL resazurin solution (100 µg/mL) were added per well and incubated for further 3 h at 37°C in a humidified atmosphere of 5% CO2. Fluorescence was quantified using a microplate reader (excitation 540 nm, emission 590 nm). Growth was calculated relative to non-inoculated (i.e. cell-free) (0% growth) and untreated (100% growth) controls in triplicate experiments, respectively. For determination of the therapeutic index of the tested substances, the selectivity index (SI) was determined by the quotient of cytotoxic concentration and MIC. Compounds with SI ≥ 10 were characterized in further experiments.

[2] = test system: human monocyte cell line THP-1; assay: Cytotoxicity, resazurin assay; type: cell-based; settings: THP-1 cells, 48 h
Procedure: as §1, §2

[3] = test system: E. faecalis ATCC 29212; assay: MIC by broth microdilution method (CLSI); settings: Enterococcus faecalis, ATCC29212, 24 h
Procedure: (§4) The compounds were tested for their antibacterial activities against the pathogenic nosocomial strains of Staphylococcus aureus, Enterococcus faecalis Enterococcus faecium, Acinetobacter baumannii. The minimal inhibitory concentration (MIC) was determined by the broth microdilution method according to the recommendations of the Clinical and Laboratory Standards Institute (CLSI) (CLSI M7-A9, 2012). For preparation of the inoculum the growth method was used. Bacterial cells were grown aerobically in Muller Hinton (MH) medium at 37°C and 180 rpm. A preculture was grown until log phase (OD600 nm ∼ 0.5) and then seeded at 5 x 10^4 bacteria/well in a total volume of 100 µL in 96 well round bottom microtiter plates and incubated with serially diluted test substances at a concentration range of 100-0.78 µM. The compounds were screened in two-fold serial dilution. Microplates were incubated aerobically at 37°C for 24 h. MICs were determined by identifying the minimum concentration of the compounds that led to complete inhibition of visual growth of the bacteria.

[4] = test system: E. faecium ATCC 35667; assay: MIC by broth microdilution method (CLSI); settings: Enterococcus faecium, ATCC35667, 24 h
Procedure: as §4

[5] = test system: Methicillin resistant S. aureus (MRSA; ATCC 700699); assay: Resistance development during time-kill kinetics; type: cell-based, Staphylococcus aureus; settings: after 6 and 24 h of incubation, plated on agar with 5x MIC
Procedure: Additionally, the resistance rate of the cultures was determined after 6 and 24 h of incubation. For this, 20 µL of the cultures were plated on 1 mL MH agar containing the five-fold MIC of the compounds (for the compound according to formula (2) and (4): 2 µM, for the compound according to formula (3): 8 µM). After an incubation time of 24 h at 37°C, the colonies were counted. The resistance rate was determined as quotient of the number of resistant colonies on compound containing agar and the total amount of viable bacteria at the corresponding time points.
Two independent cultures C1 and C2 were tested for each attempt. Compounds were tested at 5x MIC resulting in 0.02-0.08% DMSO final concentration. In an independent experiment, medium was replaced and compounds were freshly added after 6 h, denoted "freshly added" in the Figure. 20 µL of different dilution of the cultures after either 6 or 24 h of incubation were plated out on MH agar containing either no antibiotics, which is denoted (*) or the compounds of formulas (2) and (3) at 5x MIC, respectively.

[6] = test system: MRSA ATCC 700699; assay: MIC by broth microdilution method (CLSI); settings: for MIC: Staphylococcus aureus, 24 h
Procedure: as §4

[7] = test system: M. tuberculosis H37Rv; assay: MIC determination, resazurin microplate assay; type: cell-based; settings: Mycobacterium tuberculosis, 120 h, five days, range 100-0.78 µM
[8] = test system: E. faecalis ATCC 51299; assay: MIC by broth microdilution method (CLSI); settings: Enterococcus faecalis, ATCC51299, 24 h
Procedure: as §4

[9] = test system: methicillin-sensitive Staphylococcus aureus; assay: MIC quantified via the BacTiter-Glo assay; type: cell-based; settings: methicillin-sensitive strain; 24 h
Procedure: (§3) The MICs of compounds according to formulas (2), (3), (4), (7), (11), (12) and (18) were additionally quantified via the BacTiter-Glo™ assay (Promega, Madison, WI, USA). Briefly, after an incubation time of 24 h, each well was resuspended by pipetting, and 50 µL aliquots were transferred into an opaque-walled multiwell plate. Additionally, control wells containing medium without cells to determine background luminescence were prepared. 50 µL BacTiter-Glo™ reagent were added to each well. Contents were mixed and incubated for five minutes at room temperature. Luminescence was measured using a microplate reader. Growth was calculated relative to the background luminescence (0% growth) and a compound-free DMSO control (100% growth).

[10] = test system: methicillin-resistant Staphylococcus aureus; assay: MIC quantified via the BacTiter-Glo assay; type: cell-based; settings: methicillin-resistant strain; 24 h
Procedure: as §3

[11] = test system: VR E. faecium ATCC 700221; assay: MIC by broth microdilution method (CLSI); settings: Enterococcus faecium, ATCC700221, 24 h
Procedure: as §4

[12] = test system: Staphylococcus aureus MRSA strain ATCC 700699; assay: Time-kill curves in vitro (killing kinetics); type: cell-based; settings: for bacteria amount: after 6 h at five-fold MIC, inoculum 10^6 CFU/mL; for killing effect: five-fold MIC
[13] = test system: methicillin-resistant S. aureus (MRSA) strain ATCC 700699; assay: Frequency of spontaneous resistant mutants on compound-containing agar; type: cell-based, Staphylococcus aureus; settings: agar with 3- and 5-fold MIC, 72 h, 37°C
[14] = test system: S. aureus ATCC 25923; assay: MIC by broth microdilution method (CLSI); settings: Staphylococcus aureus, ATCC25923, 24 h
Procedure: as §4

[15] = test system: resistant MRSA mutants; assay: Level of resistance of isolated resistant mutants (dose-response); type: cell-based, Staphylococcus aureus

SMILES	cytotoxic (inhibitory) concentration [1] [µM]	cytotoxic (inhibitory) concentration [2] [µM]	MIC [3] [µM]	MIC [4] [µM]	level of resistance in treated cultures [5]	MIC [6] [µM]	concentrations at which a decreased inhibitory effect could be observed ([6]; paradoxical effect, assumed aggregation and precipitation) [µM]	MIC [7] [µM]	MIC [8] [µM]	inhibition of Staphylococcus aureus (BacTiter-Glo) [9]	inhibition of Staphylococcus aureus (BacTiter-Glo) [10]	MIC [11] [µM]	bacteria amount [12]	viability of the culture ([12]; compound freshly added to washed cells after 6 h, initial further decrease)	killing effect [12]	frequency of spontaneous resistant mutants [13]	MIC [14] [µM]	amount of surviving bacteria ([12]; after 24 h at five-fold MIC, limit of detection 10^1)	MIC for the mutants relative to the parent MRSA strain ([15]; mutants 9-RM, 1-RM, 9-RM-5x versus MRSA WT) [fold]	resistance of clones resistant against formula (2) towards the tested compound ([15]; two tested clones (1-RM))
Clc1ccc2[nH]cc(-c3cnc(-c4c[nH]c5ccc(Cl)cc45)cn3)c2c1 [formula (2), 2,5-bis(5-chloro-1H-indole-3-yl)pyrazine]	12.5	12.5	> 100	> 100	no significant level of resistance was detectable	0.39	≥ 3.125	> 100	> 100	effectively inhibited	effectively inhibited	> 100	10^4 CFU/mL	10^2 CFU/mL	strong bactericidal killing effect	5×10^-7	> 100			
Clc1ccc2[nH]cc(-c3cnc(-c4c[nH]c5ccc(Cl)cc45)nc3)c2c1 [formula (4), 3,3'-(pyrimidine-2,5-diyl)bis(5-chloro-1H-indole)]	> 12.5	> 12.5	3.12	1.56		0.39		50	12.5	effectively inhibited	effectively inhibited	1.56	< 10^1 CFU/mL		strong bactericidal killing effect	5×10^-5	6.25	< 10^1 CFU/mL	8	showed cross-resistance
